Assays:
Format in all cases: physicochemical
[1] = UV/Vis absorbance at 400 nm and Yellowness Index of the ring-open isomer; details: for Abs @ 400 nm, RO (Absorption of ring-open isomer at 400 nm): 2×10^−5 M solution, 1 cm pathlength cuvette
Excerpt: In addition to the above, chromophores should have acceptable colour for both the ring-opened and ring-closed isomers. For example, the ring-open isomer of the chromophore should have a Yellowness Index (YI) of less than about 10 and an absorbance at 400 nm, as measured for a 2×10^−5 M solution in a 1 cm pathlength cuvette. For the ring-closed isomer of the chromophore, the lambda max should be between about 475 nm and 700 nm, tunable according to desired colour and number of chromophores in the composition.
(§1) UV/Vis spectra were obtained using an OceanOptics™ Spectrophotometer. A 2×10^−5 M solution of compound in solvent was prepared, and photofaded using visible light until absorption in the visible region of the spectrum stabilized. The sample was then irradiated with simulated sunlight (QSUN SS-150 Solar Simulator with xenon arc lamp) until the absorption spectrum stabilized. To obtain PSS in the presence of a UV blocking film, a second sample was prepared and irradiated as described, with a UV blocking film inserted in the light path when irradiating.

[2] = Photostationary state (PSS) and lambda max under simulated sunlight (solar simulator); details: for PSS (Steady State): head of Table 3; for PSS (Steady State) / PSS (SS): absorbance at photostationary state, 2×10^−5 M solution; for λmax (nm): peak in the visible range, ring-closed (dark) state; for PSS (SS): simulated sunlight (solar simulator)
Excerpt: The term “photostationary state” (PSS) refers to an equilibrium state of a compound or material where the rate of the ring closing (forward) reaction is equal to the rate of the ring-opening reaction, when irradiated with light in a given region of the spectrum. In other words, the ratio of the ring-open isomer to the ring-closed isomer is at an equilibrium. PSS may be expressed with reference to a light source, or with reference to a type of light, for example, QUV, Xenon-arc lamp, Q-SUN, natural or filtered sunlight, UV, VIS, IR, NIR, full spectrum or the like, or with reference to a particular wavelength or range of wavelengths, or in the presence or absence of a filter. Some ring-open and ring-closed isomers may undergo isomerization from one to the other in response to different wavelengths of light. If a wavelength of light is used where only one of the isomers absorbs, irradiation results in complete isomerization to the other form. 254 nm, 313 nm or 365 nm light are commonly used in studies of UV-absorbing isomers, but this may not be representative of the PSS under other light conditions that include the visible spectrum such as natural or simulated sunlight (“full spectrum” light) and/or with filters that block a portion of the UV component of the light. For example, in a ring-closed (dark) state, the magnitude of the maximum absorbance in the visible range may change with the light source (FIG. 1). The wavelength at this peak in the visible range may be referred to as lambda max, or λmax. […] When full spectrum light from a solar simulator (Xenon arc lamp) is used as a light source (line B), a balance is achieved between the ring-closed (dark) state induced by the UV component, and a ring-open (faded) state induced by the visible component of the light. Inclusion of a UV blocking layer in the light path (line A) may reduce the UV component of the light, and the ring-opening reaction induced by the visible light component becomes more prominent. […] Where desired, the ratio of ring-open and ring-closed isomers at a PSS may be quantified by ^1H NMR spectroscopy, such as described in U.S. Pat. No. 7,777,055. In various embodiments, compounds with an increased absorbance at a photostationary state (PSS), or increased contrast ratio, are an improvement over other diarylethene compounds. A compound with a greater absorbance in the visible range can be used in lesser quantities in a formulation or material to achieve a desired contrast ratio, whereas a compound with a lower absorbance at a PSS may need a higher concentration to achieve a desired contrast ratio.
Photostationary State (PSS)
as §1

[3] = Solubility in Rhodiasolv IRIS solvent; details: for Solubility in Rhodiasolv IRIS: Rhodiasolv IRIS (dimethyl-2-methyl glutarate), wt %
Excerpt: A compound with greater solubility allows for a formulation or material with a greater concentration of coloured molecule to be incorporated into a composition. This may allow for increasing the contrast ratio for a compound with a lesser absorbance at PSS. Examples of solubilizing groups for the compound include alkoxy, ether, ester or siloxy groups. In various embodiments, compounds may be soluble in the solvent component at room temperature at about 6 wt %, 7 wt %, 8 wt %, 9 wt %, 10 wt % or greater for testing to determine whether a compound has application as an exterior glazing or optical filter. If the solubility of a compound in the solvent component is too low, then insufficient darkening may be achieved in the ring-closed configuration, depending on conditions of use for the compound.
Chromophore solutions in Rhodiasolv IRIS were prepared at 1 to 10 wt % loading. Solutions were prepared in a glovebox by charging the chromophore and Rhodiasolv IRIS to a trace-clean vial, and the solution was stirred on a hotplate at 90° C. for 2-24 hours. After cooling, the chromophore solution was injected into glass weathering cells and the fill and vent ports were sealed with a thin disc of Kalrez (FFKM Perfluorinated Elastomer) and secured with a clamp and set-screw. The weathering cells were filled and sealed inside the glove box.

CCOC(=O)CCCOc1cc2oc(-c3ccc(C(C)(C)C)cc3)c(C3=C(c4cc(-c5ccc(C(C)(C)C)s5)sc4-c4sc(C(C)(C)C)cc4C)C(F)(F)C(F)(F)C3(F)F)c2cc1OCCCC(=O)OCC [Chromophore S383, diethyl 4,4′-((2-(4-(tert-butyl)phenyl)-3-(2-(5,5″-di-tert-butyl-3-methyl-[2,2′:5′,2″-terthiophen]-3′-yl)-3,3,4,4,5,5-hexafluorocyclopent-1-en-1-yl)benzofuran-5,6-diyl)bis(oxy))dibutanoate]
YI (Yellowness Index) [1]: 4.52 | Abs @ 400 nm, RO (Absorption of ring-open isomer at 400 nm) [1]: 0.144 | PSS (Steady State) [2]: 0.408 | λmax (nm) [2]: 590 nm | Solubility in Rhodiasolv IRIS [3]: >10% | Solubility (in words) ([3]; relative to the methoxy parent chromophore): improved solubility

CCOC(=O)CCCOc1cc2oc(-c3ccc(C(C)(C)C)cc3)c(C3=C(c4cc(-c5sc(C(C)(C)C)cc5C)sc4-c4sc(C(C)(C)C)cc4C)C(F)(F)C(F)(F)C3(F)F)c2cc1OCCCC(=O)OCC [Chromophore S384, diethyl 4,4′-((2-(4-(tert-butyl)phenyl)-3-(2-(5,5″-di-tert-butyl-3,3″-dimethyl-[2,2′:5′,2″-terthiophen]-3′-yl)-3,3,4,4,5,5-hexafluorocyclopent-1-en-1-yl)benzofuran-5,6-diyl)bis(oxy))dibutanoate]
YI (Yellowness Index) [1]: 4.13 | Abs @ 400 nm, RO (Absorption of ring-open isomer at 400 nm) [1]: 0.107 | PSS (Steady State) [2]: 0.342 | λmax (nm) [2]: 593 nm | Solubility in Rhodiasolv IRIS [3]: >10%

CCOC(=O)CCCOc1cc2oc(-c3ccc(C(C)(C)C)cc3)c(C3=C(c4cc(-c5cc(C(C)(C)C)cs5)sc4-c4cc(C(C)(C)C)cs4)C(F)(F)C(F)(F)C3(F)F)c2cc1OCCCC(=O)OCC [Chromophore S386, diethyl 4,4′-((2-(4-(tert-butyl)phenyl)-3-(2-(4,4″-di-tert-butyl-[2,2′:5′,2″-terthiophen]-3′-yl)-3,3,4,4,5,5-hexafluorocyclopent-1-en-1-yl)benzofuran-5,6-diyl)bis(oxy))dibutanoate]
YI (Yellowness Index) [1]: 4.05 | Abs @ 400 nm, RO (Absorption of ring-open isomer at 400 nm) [1]: 0.113 | PSS (SS) [2]: 0.351 | λmax (nm) [2]: 593 nm | Solubility in Rhodiasolv IRIS [3]: >10%

CCOC(=O)CCCOc1cc2oc(-c3ccc(C(C)(C)C)cc3)c(C3=C(c4cc(-c5cc6c(s5)C(C)(C)CCC6(C)C)sc4-c4cc5c(s4)C(C)(C)CCC5(C)C)C(F)(F)C(F)(F)C3(F)F)c2cc1OCCCC(=O)OCC [Chromophore S387, ethyl 4-[(3-{2-[2,5-bis(4,4,7,7-tetramethyl-4,5,6,7-tetrahydro-1-benzothiophen-2-yl)thiophen-3-yl]-3,3,4,4,5,5-hexafluorocyclopent-1-en-1-yl}-2-(4-tert-butylphenyl)-6-(4-ethoxy-4-oxobutoxy)-1-benzofuran-5-yl)oxy]butanoate]
YI (Yellowness Index) [1]: 8.15 | Abs @ 400 nm, RO (Absorption of ring-open isomer at 400 nm) [1]: 0.146 | PSS (SS) [2]: 0.409 | λmax (nm) [2]: 594 nm | Solubility in Rhodiasolv IRIS [3]: >10%

COCCCOc1cc2oc(-c3ccc(C(C)(C)C)cc3)c(C3=C(c4cc(-c5cc6c(s5)C(C)(C)CCC6(C)C)sc4-c4cc5c(s4)C(C)(C)CCC5(C)C)C(F)(F)C(F)(F)C3(F)F)c2cc1OCCCOC [Chromophore S388, 3-(2-(2,5-bis(4,4,7,7-tetramethyl-4,5,6,7-tetrahydrobenzo[b]thiophen-2-yl)thiophen-3-yl)-3,3,4,4,5,5-hexafluorocyclopent-1-en-1-yl)-2-(4-(tert-butyl)phenyl)-5,6-bis(3-methoxypropoxy)benzofuran]
YI (Yellowness Index) [1]: 6.3 | Abs @ 400 nm, RO (Absorption of ring-open isomer at 400 nm) [1]: 0.132 | PSS (SS) [2]: 0.38 | λmax (nm) [2]: 600 nm | Solubility in Rhodiasolv IRIS [3]: >10%

CC(C)(C)c1ccc(-c2oc3cc(OCCN4CCOC4=O)c(OCCN4CCOC4=O)cc3c2C2=C(c3cc(-c4cc5c(s4)C(C)(C)CCC5(C)C)sc3-c3cc4c(s3)C(C)(C)CCC4(C)C)C(F)(F)C(F)(F)C2(F)F)cc1 [Chromophore S390, 3,3′-(((3-(2-(2,5-bis(4,4,7,7-tetramethyl-4,5,6,7-tetrahydrobenzo[b]thiophen-2-yl)thiophen-3-yl)-3,3,4,4,5,5-hexafluorocyclopent-1-en-1-yl)-2-(4-(tert-butyl)phenyl)benzofuran-5,6-diyl)bis(oxy))bis(ethane-2,1-diyl))bis(oxazolidin-2-one)]
YI (Yellowness Index) [1]: 6.48 | Abs @ 400 nm, RO (Absorption of ring-open isomer at 400 nm) [1]: 0.133 | PSS (SS) [2]: 0.45 | λmax (nm) [2]: 593 nm | Solubility in Rhodiasolv IRIS [3]: >10%

CC(=O)Oc1cc2oc(-c3ccc(C(C)(C)C)cc3)c(C3=C(c4cc(-c5cc(C(C)(C)C)cs5)sc4-c4cc(C(C)(C)C)cs4)C(F)(F)C(F)(F)C3(F)F)c2cc1OC(C)=O [Chromophore S396, 2-(4-(tert-butyl)phenyl)-3-(2-(4,4″-di-tert-butyl-[2,2′:5′,2″-terthiophen]-3′-yl)-3,3,4,4,5,5-hexafluorocyclopent-1-en-1-yl)benzofuran-5,6-diyl diacetate]
YI (Yellowness Index) [1]: 2.78 | Abs @ 400 nm, RO (Absorption of ring-open isomer at 400 nm) [1]: 0.08 | PSS (SS) [2]: 0.278 | λmax (nm) [2]: 578 nm | Solubility in Rhodiasolv IRIS [3]: >3%

COc1ccc2oc(-c3ccc(C(C)(C)C)cc3)c(C3=C(c4cc(-c5cc6c(s5)C(C)(C)CCC6(C)C)sc4-c4cc5c(s4)C(C)(C)CCC5(C)C)C(F)(F)C(F)(F)C3(F)F)c2c1 [Chromophore S400]
YI (Yellowness Index) [1]: 6.67 | Abs @ 400 nm, RO (Absorption of ring-open isomer at 400 nm) [1]: 0.125 | PSS (SS) [2]: 0.306 | λmax (nm) [2]: 592 nm | Solubility in Rhodiasolv IRIS [3]: >3%

COc1cc2oc(-c3ccc(C(C)(C)C)cc3)c(C3=C(c4cc(-c5cc6c(s5)C(C)(C)CCCC6(C)C)sc4-c4cc5c(s4)C(C)(C)CCCC5(C)C)C(F)(F)C(F)(F)C3(F)F)c2cc1OC [Chromophore S405]
YI (Yellowness Index) [1]: 7.26 | Abs @ 400 nm, RO (Absorption of ring-open isomer at 400 nm) [1]: 0.143 | PSS (SS) [2]: 0.381 | λmax (nm) [2]: 598 nm | Solubility in Rhodiasolv IRIS [3]: >1%

From US20220220100A1 (SOLUTIA CANADA INC., priority 2019, published 2022)
